Laboratory results published in ChEMBL document CHEMBL1201862, “PubChem BioAssay data set” (2004).
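Where inhibition never reached the appropriate level, the endpoint shown equals the highest concentration tested. Otherwise, values were interpolated linearly from a five-concentration, 48-hour dose response in 96-well plates. At the GI50, growth is halved.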 Active and inactive are the calls of the source. No stated cut-off is given here; in the data, active = GI50 up to about 1.1 µM and inactive = higher.

Tests used:
Experiment in all cases: inhibition of tumour cell growth, NCI panel, 48 h
EKVX = tested on: EKVX
HOP-92 = tested on: HOP-92
K562 = tested on: K562
OVCAR-4 = tested on: OVCAR-4
OVCAR-8 = tested on: OVCAR-8
RPMI-8226 = tested on: RPMI-8226
SF-268 = tested on: SF-268
SK-MEL-5 = tested on: SK-MEL-5
SNB-19 = tested on: SNB-19
U-251 = tested on: U-251
UACC-257 = tested on: UACC-257
UO-31 = tested on: UO-31
DMS-114 = tested on: DMS-114
DMS-273 = tested on: DMS-273
KM-20L2 = tested on: KM-20L2
LOX IMVI = tested on: LOX IMVI
M19-MEL = tested on: M19-MEL
RXF 393 = tested on: RXF 393
SF-295 = tested on: SF-295
XF498 = tested on: XF498

Measured: GI50

COC(=O)/C=C\n1ncc(=O)[nH]c1=O
inactive: EKVX > 100 µM | HOP-92 > 100 µM | K562 > 100 µM | OVCAR-4 > 100 µM | OVCAR-8 > 100 µM | RPMI-8226 > 100 µM | SF-268 > 100 µM | SK-MEL-5 > 100 µM | SNB-19 > 100 µM | U-251 > 100 µM | UACC-257 > 100 µM | UO-31 > 100 µM

Nc1nc(SCCC/C=C/I)nc2c1ncn2C1OC(COP(=O)(O)O)C(O)C1O (configuration not stated)
inactive: DMS-114 > 100 µM | DMS-273 > 100 µM | EKVX > 100 µM | HOP-92 > 100 µM | K562 > 100 µM | KM-20L2 > 100 µM | LOX IMVI > 100 µM | M19-MEL > 100 µM | OVCAR-4 > 100 µM | OVCAR-8 > 100 µM | RXF 393 > 100 µM | SF-268 > 100 µM | SF-295 > 100 µM | SK-MEL-5 > 100 µM | SNB-19 > 100 µM | U-251 > 100 µM | UACC-257 > 100 µM | XF498 > 100 µM

Nc1n[nH]c(Nc2ccc(Cl)cc2)c1P(=O)(c1ccccc1)c1ccccc1
inactive: EKVX 35.2 µM | HOP-92 20.8 µM | K562 64.9 µM | LOX IMVI 31.6 µM | OVCAR-4 22 µM | OVCAR-8 18.4 µM | RPMI-8226 39.5 µM | RXF 393 20.9 µM | SF-268 15.2 µM | SF-295 18.6 µM | SK-MEL-5 20.9 µM | SNB-19 26.7 µM | U-251 30.3 µM | UACC-257 31.3 µM | UO-31 29.4 µM

C=C(C)C1Cc2c(c3ccccc3n(C)c2=O)O1 (configuration not stated)
inactive: DMS-114 > 100 µM | EKVX > 100 µM | HOP-92 93.3 µM | K562 > 100 µM | KM-20L2 > 100 µM | LOX IMVI > 100 µM | M19-MEL > 100 µM | OVCAR-8 > 100 µM | RPMI-8226 > 100 µM | SF-268 > 100 µM | SF-295 > 100 µM | SK-MEL-5 > 100 µM | SNB-19 > 100 µM | U-251 > 100 µM | UO-31 > 100 µM

CCCCCOc1ccc(/C=N\c2ccc(CCc3ccc(/N=C/c4ccc(OCCCCC)cc4)cc3)cc2)cc1
inactive: DMS-114 > 100 µM | DMS-273 > 100 µM | EKVX > 100 µM | HOP-92 > 100 µM | K562 > 100 µM | KM-20L2 > 100 µM | LOX IMVI > 100 µM | M19-MEL > 100 µM | OVCAR-4 > 100 µM | OVCAR-8 > 100 µM | RPMI-8226 > 100 µM | RXF 393 > 100 µM | SF-268 > 100 µM | SF-295 > 100 µM | SK-MEL-5 > 100 µM | SNB-19 > 100 µM | U-251 > 100 µM | UACC-257 > 100 µM | UO-31 > 100 µM | XF498 > 100 µM

O=C(Nc1ccccc1)N1CCN(C(=O)Nc2ccccc2)C1=S
inactive: EKVX > 100 µM | HOP-92 29 µM | K562 > 100 µM | LOX IMVI > 100 µM | OVCAR-4 55.7 µM | OVCAR-8 34.6 µM | RPMI-8226 > 100 µM | RXF 393 19.9 µM | SF-268 20 µM | SF-295 23.4 µM | SK-MEL-5 > 100 µM | U-251 > 100 µM | UACC-257 > 100 µM | UO-31 23.7 µM

CN(CCO)/N=N/c1[nH]cnc1C(N)=O
inactive: DMS-114 > 100 µM | DMS-273 49.9 µM | EKVX > 100 µM | HOP-92 77.8 µM | KM-20L2 > 100 µM | LOX IMVI 26.2 µM | M19-MEL > 100 µM | OVCAR-4 > 100 µM | OVCAR-8 45.7 µM | RPMI-8226 > 100 µM | RXF 393 > 100 µM | SF-268 84.1 µM | SF-295 77.8 µM | SK-MEL-5 > 100 µM | SNB-19 > 100 µM | U-251 > 100 µM | UACC-257 99.8 µM | XF498 82.2 µM
